Reference: US8501911B2, “Methods of reducing inflammation and mucus hypersecretion” (Biomarck Pharmaceuticals, Ltd, priority 1999, dated 2013)

Experiments:
Type in all cases: cell-based, human
PP2A = test: Protein phosphatase activity assay in NHBE cells, PP2A; conditions: 8-Br-cGMP as low as 0.1 μM
Protocol: (§1) To confirm further activation of PP2A by PKG in NHBE cells, cytosolic PP1 and PP2A activities were determined after exposure of the cells to 8-Br-cGMP. […] Accordingly, this PP2A activity appeared critical for mucin secretion to occur; when PKG-induced MARCKS dephosphorylation was blocked by okadaic acid or fostriecin, the secretory response to PKC/PKG activation or UTP stimulation was ameliorated (see Results-I-6-1 and Results-I-6-2, above).
(§2) Protein Phosphatase Activity Assay—PP1 and PP2A activities were measured using a protein phosphatase assay system (Life Technologies, Inc.) as known in the art with slight modification. Huang et al., Adv. Exp. Med. Biol. 396, 209-215 (1996). Briefly, NHBE cells were treated with 8-Br-cGMP or medium alone for 5 min. Cells were then scraped into a lysis buffer (50 mM Tris-HCl (pH 7.4), 0.1% beta-mecaptoethanol, 0.1 mM EDTA, 1 mM benaamidine, 10 μg/ml pepstatin A, 10 μg/ml leupeptin) and disrupted by sonication for 20 s at 4° C. […] Released ^32Pi was counted by scintillation. The protein concentration of each sample was determined by the Bradford assay. PP2A activity was expressed as the sample total phosphatase activity minus the activity remaining in the presence of 1 nM okadaic acid. PP1 activity was expressed as the difference between the activities remaining in the presence of 1 nM and 1 μM okadaic acid, respectively. […]

PP1 = test: Protein phosphatase activity assay in NHBE cells, PP1; conditions: after exposure to 8-Br-cGMP
Protocol: as §1, §2

MARCKS mRNA = MARCKS mRNA level in NHBE cells (Northern hybridization); conditions: TNF-α 10 ng/ml 4 h, then PMA 100 nM+8-Br-cGMP 1 μM 15 min
Protocol: NHBE cells were treated with the antisense or the control oligonucleotide for 3 days and then stimulated with PMA (100 nM)+8-Br-cGMP (1 μM) for 15 min. Mucin secretion was analyzed by ELISA. Total RNA and protein were isolated from treated cells. MARCKS mRNA was assessed by Northern hybridization, and protein was assessed by Western blot. […] In this regard, MARCKS mRNA as a percent of control is shown in the following results which are designated as Results-I-3A-2:
Antisense Oligonucleotides—MARCKS antisense oligonucleotide and its corresponding control oligonucleotide were synthesized at Biognostik GmbH (Gottingen, Germany). […] Cells were then incubated with secretagogues, and mucin secretion was measured by ELISA. […] MARCKS mRNA was assessed by Northern hybridization according to conventional procedures using human MARCKS cDNA as a probe. MARCKS protein level was determined by Western blot using purified anti-MARCKS IgG1 (clone 2F12) as the primary detection antibody.
NHBE cells were incubated with 10 ng/ml human recombinant TNF-α or medium alone for 4 hrs, then stimulated with PMA (100 nM)+8-Br-cGMP (1 μM) for 15 min, or UTP (0.1 mM) for 2 hrs. Secreted mucin was collected and measured by ELISA. […] MARCKS mRNA was assessed by Northern hybridization, and protein by the Western Blot technique. […]

Row | Compound | Increase of PP2A activity (PP2A) | PP2A activity (PP2A; 5 min, baseline 0.1) [nmol/mnin/mg proteins] | PP1 activity (PP1) | MARCKS mRNA level relative to control (MARCKS mRNA) [%]
1 | Nc1nc2c(nc(Br)n2[C@@H]2O[C@@H]3COP(=O)(O)O[C@H]3[C@H]2O)c(=O)[nH]1 [8-Br-cGMP] | approximately 3 fold | 0.3 | unchanged | 
2 | TNF-α |  |  |  | 115
